Assay results published in paper PMC10702058, “Phase I dose escalation study and pilot efficacy analysis of LXI-15029, a novel mTOR dual inhibitor, in Chinese subjects with advanced malignant solid tumors” (BMC Cancer, 2023).
Like-named read-outs stand apart in the source and are kept apart here.

Assay: Plasma pharmacokinetics of LXI-15029 (LC-MS/MS, non-compartmental analysis)
Assay type: in vivo, human
Procedure: Blood samples for PK analysis of LXI-15029 were collected on day 1 (pre-dose, 20 min, 40 min, 1 h, 1.5 h, 2 h, 3 h, 4 h, 6 h, 8 h, 12 h, 24 h, and 48 h), cycle 1 day 8 (pre-dose), cycle 1 day 15 (pre-dose), and cycle 1 day 28 (pre-dose, 20 min, 40 min, 1 h, 1.5 h, 2 h, 3 h, 4 h, 6 h, 8 h, and 12 h). The blood samples were stored at -70°C until testing. The concentration of LXI-15029 in plasma was measured using the validated liquid chromatography-tandem mass spectrometry (LC–MS/MS) method. The concentration–time information of LXI-15029 was summarized based on pre-dose and post-dose data of each patient, to explore the linearity of exposure with single dose and steady-state situations, the time to reach steady state and the predictability of single to multiple doses PK. PK parameters were calculated separately for single and repeated doses using descriptive statistics. PK analysis was performed by Covance Central Laboratory using the validated software Phoenix WinNonlin Version 8.1 (Pharsight, Mountain View, CA). A standard non-compartmental method was used to calculate the peak plasma concentration (Cmax), time to reach the Cmax (tmax), the total area under the concentration–time curve (AUC0-∞), and the elimination half-life (t1/2).

[1] = 150-mg BID group, compared with preclinical data
[2] = human, plasma, oral, multiple dose, cycle 1 day 28, 10 mg BID (n = 3), geometric mean (coefficient of variation)
[3] = human, plasma, oral, multiple dose, cycle 1 day 28, 20 mg BID (n = 3), geometric mean (coefficient of variation)
[4] = human, plasma, oral, multiple dose, cycle 1 day 28, 40 mg BID (n = 3), geometric mean (coefficient of variation)
[5] = human, plasma, oral, multiple dose, cycle 1 day 28, 60 mg BID (n = 4), geometric mean (coefficient of variation)

## CNC(=O)c1cccc(-c2ccc3c(N4C5CCC4COC5)nc(N4CCOC[C@@H]4C)nc3n2)c1 [LXI-15029]
10 to 150 mg, single dose day 1 and cycle 1 day 28
  increase of Cmax and AUC versus dose proportionality: greater than the dose proportionality
[1]
  exposure relative to the NOAEL in dogs: fivefold higher
  exposure relative to the highest non-severely toxic dose (HNSTD) found in rats: threefold higher
Cycle 1 day 28, 10 to 150 mg
  Cmax ss versus dose: increased with the dose increase
Cycle 1 day 28, 10 to 150 mg, except for 80 mg
  Cmin ss, Cav ss, and AUCss versus dose: increased with the dose increase
Day 1, 10 to 150 mg, except for 80 mg
  exposure (Cmax and AUC) versus dose: increased with the dose increase
human, plasma, oral, 10 mg BID, multiple dose, cycle 1 day 28, 10 mg BID (n = 3), geometric mean (coefficient of variation), read-out: Cav ss
  concentration at 28 day: 15.9 ng/mL
human, plasma, oral, 10 mg, multiple dose, cycle 1 day 28, 10 mg BID (n = 3), median (min, max)
  Tmax at 28 day: 1.02 h
human, plasma, oral, 10 mg, single dose, cycle 1 day 1, 10 mg BID (n = 3), arithmetic mean ± standard deviation, read-out: t1/2 (converted)
  half-life: 0.95 ± 0.205 h
human, plasma, oral, 10 mg, single dose, cycle 1 day 1, 10 mg BID (n = 3), median (min, max), read-out: Tmax
  Tmax: 0.98 h
human, plasma, oral, 20 mg BID, multiple dose, cycle 1 day 28, 20 mg BID (n = 3), geometric mean (coefficient of variation), read-out: Cav ss
  concentration at 28 day: 71.9 ng/mL
human, plasma, oral, 20 mg BID, multiple dose, cycle 1 day 28, 20 mg BID (n = 3), geometric mean (coefficient of variation), read-out: Cmin ss
  concentration at 28 day: 1.61 ng/mL
human, plasma, oral, 20 mg, multiple dose, cycle 1 day 28, 20 mg BID (n = 3), median (min, max)
  Tmax at 28 day: 1.47 h
human, plasma, oral, 20 mg, single dose, cycle 1 day 1, 20 mg BID (n = 3), arithmetic mean ± standard deviation, read-out: t1/2 (converted)
  half-life: 1.47 ± 0.268 h
human, plasma, oral, 20 mg, single dose, cycle 1 day 1, 20 mg BID (n = 3), median (min, max), read-out: Tmax
  Tmax: 1 h
human, plasma, oral, 40 mg BID, multiple dose, cycle 1 day 28, 40 mg BID (n = 3), geometric mean (coefficient of variation), read-out: Cav ss
  concentration at 28 day: 139 ng/mL
human, plasma, oral, 40 mg BID, multiple dose, cycle 1 day 28, 40 mg BID (n = 3), geometric mean (coefficient of variation), read-out: Cmin ss
  concentration at 28 day: 3.74 ng/mL
human, plasma, oral, 40 mg, multiple dose, cycle 1 day 28, 40 mg BID (n = 3), median (min, max)
  Tmax at 28 day: 0.67 h
human, plasma, oral, 40 mg, single dose, cycle 1 day 1, 40 mg BID (n = 3), arithmetic mean ± standard deviation, read-out: t1/2 (converted)
  half-life: 1.13 ± 0.324 h
human, plasma, oral, 40 mg, single dose, cycle 1 day 1, 40 mg BID (n = 3), geometric mean (coefficient of variation)
  AUC(0-t): 1680 ng·h/mL
human, plasma, oral, 40 mg, single dose, cycle 1 day 1, 40 mg BID (n = 3), median (min, max), read-out: Tmax
  Tmax: 0.68 h
human, plasma, oral, 60 mg BID, multiple dose, cycle 1 day 28, 60 mg BID (n = 4), geometric mean (coefficient of variation), read-out: Cav ss
  concentration at 28 day: 477 ng/mL
human, plasma, oral, 60 mg BID, multiple dose, cycle 1 day 28, 60 mg BID (n = 4), geometric mean (coefficient of variation), read-out: Cmin ss
  concentration at 28 day: 35 ng/mL
human, plasma, oral, 60 mg, multiple dose, cycle 1 day 28, 60 mg BID (n = 4), median (min, max)
  Tmax at 28 day: 0.98 h
human, plasma, oral, 60 mg, single dose, cycle 1 day 1, 60 mg BID (n = 4), arithmetic mean ± standard deviation, read-out: t1/2 (converted)
  half-life: 2 ± 0.599 h
human, plasma, oral, 60 mg, single dose, cycle 1 day 1, 60 mg BID (n = 4), median (min, max), read-out: Tmax
  Tmax: 1.25 h
human, plasma, oral, 80 mg BID, multiple dose, cycle 1 day 28, 80 mg BID (n = 4), geometric mean (coefficient of variation), read-out: Cav ss
  concentration at 28 day: 435 ng/mL
human, plasma, oral, 80 mg BID, multiple dose, cycle 1 day 28, 80 mg BID (n = 4), geometric mean (coefficient of variation), read-out: Cmin ss
  concentration at 28 day: 6.41 ng/mL
human, plasma, oral, 80 mg, multiple dose, cycle 1 day 28, 80 mg BID (n = 4), median (min, max)
  Tmax at 28 day: 1.08 h
human, plasma, oral, 80 mg, single dose, cycle 1 day 1, 80 mg BID (n = 4), arithmetic mean ± standard deviation, read-out: t1/2 (converted)
  half-life: 1.33 ± 0.174 h
human, plasma, oral, 80 mg, single dose, cycle 1 day 1, 80 mg BID (n = 4), median (min, max), read-out: Tmax
  Tmax: 0.87 h
human, plasma, oral, 110 mg BID, multiple dose, cycle 1 day 28, 110 mg BID (n = 3), geometric mean (coefficient of variation), read-out: Cav ss
  concentration at 28 day: 1080 ng/mL
human, plasma, oral, 110 mg BID, multiple dose, cycle 1 day 28, 110 mg BID (n = 3), geometric mean (coefficient of variation), read-out: Cmin ss
  concentration at 28 day: 152 ng/mL
human, plasma, oral, 110 mg, multiple dose, cycle 1 day 28, 110 mg BID (n = 3), median (min, max), read-out: Tmax ss
  Tmax: 0.67 h
human, plasma, oral, 110 mg, single dose, cycle 1 day 1, 110 mg BID (n = 3), arithmetic mean ± standard deviation, read-out: t1/2 (converted)
  half-life: 1.48 ± 0.531 h
human, plasma, oral, 110 mg, single dose, cycle 1 day 1, 110 mg BID (n = 3), median (min, max), read-out: Tmax
  Tmax: 0.7 h
human, plasma, oral, 150 mg BID, multiple dose, cycle 1 day 28, 150 mg BID (n = 4), geometric mean (coefficient of variation), read-out: Cav ss
  concentration at 28 day: 2120 ng/mL
human, plasma, oral, 150 mg BID, multiple dose, cycle 1 day 28, 150 mg BID (n = 4), geometric mean (coefficient of variation), read-out: Cmin ss
  concentration at 28 day: 452 ng/mL
human, plasma, oral, 150 mg, multiple dose, cycle 1 day 28, 150 mg BID (n = 4), median (min, max), read-out: Tmax ss
  Tmax: 0.98 h
human, plasma, oral, 150 mg, single dose, cycle 1 day 1, 150 mg BID (n = 4), arithmetic mean ± standard deviation, read-out: t1/2 (converted)
  half-life: 1.94 ± 0.706 h
human, plasma, oral, 150 mg, single dose, cycle 1 day 1, 150 mg BID (n = 4), median (min, max), read-out: Tmax
  Tmax: 0.82 h
human, plasma, oral, after multiple dosings, read-out: arithmetic mean of t1/2 across dose cohorts
  half-life: 1.13 to 3.26 h
human, plasma, oral, after single dosing, read-out: arithmetic mean of t1/2 across dose cohorts
  half-life: 0.95 to 2 h
human, plasma, oral, cycle 1 day 28, dose range 10 to 150 mg, read-out: median range of Tmax ss
  Tmax: 0.67 to 1.47 h
human, plasma, oral, single dose on day 1, across dose groups, read-out: median range of Tmax
  Tmax: 0.68 to 1.25 h
[2]
  AUC: 191 ng·h/mL
  Cmax at 28 day: 115 ng/mL
[3]
  AUC: 863 ng·h/mL
  Cmax at 28 day: 350 ng/mL
[4]
  AUC: 1670 ng·h/mL
  Cmax at 28 day: 1010 ng/mL
[5]
  AUC: 5730 ng·h/mL
  Cmax at 28 day: 1690 ng/mL
human, plasma, oral, multiple dose, cycle 1 day 28, 80 mg BID (n = 4), geometric mean (coefficient of variation)
  AUC: 5220 ng·h/mL
